Values quoted from earlier work, collected in patent publication US6583123B2, “Aminosugar, glycosaminoglycan, and S-adenosylmethionine composition for the treatment and repair of connective tissue” (Nutramax Laboratories, Inc., priority 1996, dated 2003).
Blank lines part the entries; values can stand above or below the compound they belong to.

What was measured:
[1] = not given; remark: listed apart in the source
[2] = tested on: fibroblasts; conditions: in vitro
[3] = tested on: wound healing; conditions: topical application, in vivo
[4] = tested on: osteoarthritis; conditions: humans with osteoarthritis
[5] = SAM per se (not stable salts)
[6] = some forms of exogenous SAM, given orally
[7] = oral, humans, versus placebo
[8] = tested on: inflammation

SMILES: [Mn+2] [manganese]
dietary manganese absorbed by the body tissue: Approximately 40%

absorption after oral administration ([1]; humans and animals): rapidly absorbed
tissue localization of ingested glucosamine ([1]; oral): localizes to cartilage and joint tissues
SMILES: N[C@H]1C(O)O[C@H](CO)[C@@H](O)[C@@H]1O (stereo partly shown) [Glucosamine]
synthesis of collagen and glycosaminoglycans [2]: increase the synthesis of collagen and glycosaminoglycans
wound healing [3]: enhanced wound healing
symptoms and cartilage integrity [4]: reproducible improvement in symptoms and cartilage integrity

stability [5]: unstable
stability in digestive juices [6]: stable in digestive juices
SMILES: C[S+](CC[C@H](N)C(=O)[O-])C[C@H]1O[C@@H](n2cnc3c(N)ncnc32)[C@H](O)[C@@H]1O (stereo partly shown) [SAM, S-Adenosylmethionine]
tolerability [7]: tolerated to the same extent as placebo

SMILES: Nc1ncnc2c1ncn2[C@@H]1O[C@H](CO)[C@@H](O)[C@H]1O [adenosine]
anti-inflammatory effect [8]: more modest anti-inflammatory effect
